Laboratory results: PubChem BioAssay (NCI)
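Cultured in 96-well plates, cells were exposed to test compound for 48 hours across five concentrations. Abbreviation: GI50, concentration required for 50% inhibition of growth. The concentration for full growth arrest is given as TGI.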

Legend:
Assay in all cases: DTP human tumour cell line panel, 48 h
SK-OV-3 ovarian = test system: SK-OV-3 ovarian
UACC-257 melanoma = test system: UACC-257 melanoma
HCT-116 colon = test system: HCT-116 colon
NCI-H522 lung = test system: NCI-H522 lung
SNB-75 CNS = test system: SNB-75 CNS
A498 renal = test system: A498 renal
TK-10 renal = test system: TK-10 renal
DU-145 prostate = test system: DU-145 prostate
NCI/ADR-RES ovarian = test system: NCI/ADR-RES ovarian
T-47D breast = test system: T-47D breast

SMILES | TGI (SK-OV-3 ovarian) | TGI (UACC-257 melanoma) | TGI (HCT-116 colon) | TGI (NCI-H522 lung) | TGI (SNB-75 CNS) | TGI (A498 renal) | TGI (TK-10 renal) | TGI (DU-145 prostate) | TGI (NCI/ADR-RES ovarian) | TGI (T-47D breast) | GI50 (SK-OV-3 ovarian) | GI50 (UACC-257 melanoma) | GI50 (SNB-75 CNS) | GI50 (A498 renal) | GI50 (TK-10 renal) | GI50 (DU-145 prostate) | GI50 (HCT-116 colon)
Cc1cn2c(C)csc2c1P(=O)(OC(C)C)OC(C)C | > 100 µM | > 100 µM | > 100 µM | > 100 µM | > 100 µM | > 100 µM | > 100 µM | > 100 µM | > 100 µM | – | – | – | – | – | – | – | –
COC(=O)c1cc(C)ccc1CC(Cc1ccc(C)cc1)C(=O)OC (stereo unspecified) | 67.2 µM | > 100 µM | > 100 µM | > 100 µM | > 90.7 µM | > 100 µM | > 100 µM | > 100 µM | > 100 µM | > 100 µM | – | – | – | – | – | – | –
COC(=O)C1=C(C)NC(C)=C([N+](=O)[O-])C1c1cccc(N=O)c1 (stereo unspecified) | 46.6 µM | 25.1 µM | 23 µM | 5.34 µM | – | 58.4 µM | 25.4 µM | 28.7 µM | 45.9 µM | 37.3 µM | – | – | – | – | – | – | –
c1csc(-c2c3ccc(=[N+]4CCCCC4)cc-3oc3cc(N4CCCCC4)ccc23)c1 | 0.682 µM | 0.321 µM | – | – | 0.508 µM | 0.453 µM | 0.34 µM | 0.201 µM | – | – | 0.212 µM | 0.0982 µM | 0.123 µM | 0.0683 µM | 0.15 µM | 0.0578 µM | –
Cc1cc2nc(-c3cc(C(C)(C)C)c(O)c(C(C)(C)C)c3)[nH]c2cc1C | > 100 µM | > 100 µM | – | > 100 µM | > 100 µM | > 100 µM | > 100 µM | > 100 µM | > 100 µM | > 100 µM | – | – | – | – | – | – | –
CC12CC1C(c1cccc([N+](=O)[O-])c1)(c1cccc([N+](=O)[O-])c1)N=N2 (stereo unspecified) | > 100 µM | > 100 µM | 33.8 µM | 23.2 µM | > 100 µM | > 100 µM | > 100 µM | > 100 µM | 59.3 µM | > 100 µM | – | – | – | – | – | – | –
COc1ccc(/C=N/N2C(=O)c3c(N)c(C#N)c(-c4ccccc4)c(-c4ccccc4)c3C2=O)cc1 | – | > 100 µM | > 100 µM | > 100 µM | > 100 µM | > 100 µM | > 100 µM | > 100 µM | > 100 µM | > 100 µM | – | – | – | – | – | – | –
C=C(C)[C@@]1(O[Si](C)(C)C)CCCC[C@@H]1CC(Sc1ccccc1)Sc1ccccc1 | 39.7 µM | 29.7 µM | – | 20.4 µM | 25.7 µM | 34.5 µM | 29 µM | 29.7 µM | 32 µM | 18.8 µM | – | – | – | – | – | – | –
O=C([CH-]C(=O)c1ccccc1)c1ccccc1.O=C([CH-]C(=O)c1ccccc1)c1ccccc1.[O]=[U+2]=[O] | 12.3 µM | 35.5 µM | 15.9 µM | – | – | 7.89 µM | 26.6 µM | – | – | – | 4.01 µM | 7.84 µM | – | 2.59 µM | 4.8 µM | – | 2.99 µM
O=c1n(Cc2ccccc2)c(=O)n2c(=O)n(Cc3ccccc3)c(=O)n12 | > 100 µM | > 100 µM | > 100 µM | > 100 µM | > 100 µM | > 100 µM | > 100 µM | > 100 µM | > 100 µM | > 100 µM | – | – | – | – | – | – | –
Cc1cc(/N=C/c2ccc(C#N)cc2)n(-c2ccccc2)n1 | > 100 µM | > 100 µM | > 100 µM | > 100 µM | > 100 µM | – | > 100 µM | > 100 µM | > 100 µM | > 100 µM | – | – | – | – | – | – | –
COc1cc2c(c(O)c1O)-c1ccc(OC)c(=O)cc1C(NC(C)=O)CC2 (stereo unspecified) | 60.4 µM | > 100 µM | > 62.8 µM | 6.48 µM | 16.6 µM | > 89.9 µM | > 100 µM | – | – | – | – | – | – | – | – | – | –
S=C1CC(c2ccccc2)Sc2ccc(Cl)cc2N1 (stereo unspecified) | > 100 µM | > 100 µM | > 100 µM | > 100 µM | > 100 µM | – | > 100 µM | > 100 µM | > 100 µM | > 100 µM | – | – | – | – | – | – | –
Nc1nc(Nc2ccccc2)sc1C(=O)c1c[nH]c2ccccc12 | 32.8 µM | 22.6 µM | 19.5 µM | – | – | 30.6 µM | 11 µM | 22.5 µM | 44.7 µM | 33.3 µM | – | – | – | – | – | – | –
Cc1ccc(-c2c(C#N)c(-c3ccc([N+](=O)[O-])cc3)c(C#N)c(=O)n2NS(=O)(=O)c2ccccc2)cc1 | > 100 µM | > 100 µM | > 100 µM | > 100 µM | > 100 µM | > 100 µM | > 100 µM | – | > 100 µM | – | – | – | – | – | – | – | –
CC(C)(C)OC(=O)n1c(-c2ccccc2F)cc(=O)c2cc3c(cc21)OCO3 | – | – | > 31.8 µM | – | > 100 µM | > 94.7 µM | > 100 µM | > 100 µM | 0.0555 µM | > 100 µM | – | – | – | – | – | – | –
O=[N+]([O-])c1ccc(C2=Nc3ccccc3SC(c3ccccc3)C2)cc1 (stereo unspecified) | 46 µM | 51.6 µM | 24.2 µM | 26.7 µM | 37.1 µM | 47.9 µM | > 100 µM | – | – | – | – | – | – | – | – | – | –
COC(=O)[C@H](C)NC(=O)[C@H](CSC)N1C(=O)N[C@@H](C(C)C)C1=O | > 100 µM | > 100 µM | > 100 µM | > 100 µM | > 100 µM | – | > 100 µM | > 100 µM | > 100 µM | > 100 µM | – | – | – | – | – | – | –
Nc1nc(Nc2ccc(Cl)cc2)sc1C(=O)c1cccs1 | 50 µM | > 100 µM | > 100 µM | – | – | 72.9 µM | 36.3 µM | > 100 µM | > 100 µM | > 100 µM | – | – | – | – | – | – | –
CCOC(=O)C1CN(C2CC2)CCC1=O (stereo unspecified) | > 100 µM | > 100 µM | > 100 µM | – | > 100 µM | – | > 100 µM | > 100 µM | > 100 µM | > 100 µM | – | – | – | – | – | – | –
C[C@]12CC[C@H](O)C=C1CC[C@@H]1[C@@H]2CC[C@]2(C)C(c3ccc(=O)oc3)CC[C@]12O (stereo partly specified) | 0.065 µM | 0.0777 µM | 0.0674 µM | 0.0155 µM | 0.0736 µM | 0.081 µM | – | – | 0.0926 µM | – | – | – | – | – | – | – | –
CC/C(Cl)=N\OC(=O)Nc1ccc(F)c([N+](=O)[O-])c1 | 34.5 µM | 35.1 µM | 30.6 µM | – | 38.9 µM | 39.4 µM | 26.1 µM | 36.9 µM | 75.8 µM | – | – | – | – | – | – | – | –
O=C(O)CC(NC(=O)/C(=C/c1ccccc1O)NC(=O)c1ccccc1)C(=O)O (stereo unspecified) | > 100 µM | > 100 µM | > 100 µM | > 100 µM | > 100 µM | > 100 µM | > 100 µM | – | > 100 µM | > 100 µM | – | – | – | – | – | – | –
